Assay results as given in patent US8263344B2, “Compounds regulating calreticulin, KDEL receptor and/or Erp-57 cell surface exposure and uses thereof to evaluate the efficiency of a cancer treatment” (Institut Gustave Roussy, priority 2006, dated 2012).
Peptide text beside a SMILES is read from it. * marks the point of attachment. Cbz = O=C(OCc1ccccc1)*; CH2F = FC*

Experiments:
[1] = system: CT26 cells; test: Phagocytosis of tumour cells by dendritic cells (DC); format: cell-based, BALB/c mice
Description: BM cells were flushed from the tibias and femurs of BALB/c mice with culture medium composed of RPMI 1640 medium (Invitrogen Life Technologies) supplemented with 10% heat-inactivated FBS (Invitrogen), sodium pyruvate, 50 μM 2-ME (Sigma), 10 mM HEPES (pH 7.4), and penicillin/streptomycin (Invitrogen). After one centrifugation, BM cells were resuspended in Tris-ammonium chloride for 2 min to lyse RBC. After one more centrifugation, BM cells (1×10^6 cells/ml) were cultured in medium supplemented with 100 ng/ml recombinant mouse FLT3 ligand (R&D systems) in 6-well plates (Costar Corning). After 7 days, the non-adherent and loosely adherent cells were harvested with Versene, washed and transferred in 12-well plates (1.5×10^6 cells/plate) for cocultures with tumour cells.
In 12-well plates, […] adherent CT26 cells were labelled with Celltracker Green (Calbiochem) and then incubated with drugs. In some experiments viable CT26 were coated with 2 μg/10^6 cells of chicken anti-CRT antibody (ABR affinity bioreagents) or an isotype control for 30 min prior to washing and feeding to dendritic cells Cs. Alternatively CT26 cells were coated with 2 μg/10^6 cells of rCRT on ice for 30 min and washed twice prior to addition to dendritic cells. Cells were then harvested, washed three times with medium supplemented with FBS and cocultured with immature DC for 2 hours at a ratio of 1:1 and 1:5. At the end of the incubation, cells were harvested with versene, pooled with non-adherent cells present in the supernatant, washed and stained with CD11c-FITC antibody. Phagocytosis was assessed by FACS analysis of double positive cells. Phagocytic indexes refer to the ratio between values obtained at 4° C. and values obtained at 37° C. of co-incubation between DC and tumour cells.

[2] = system: CT26 tumour cells; test: Anti-tumour vaccination with treated (dying) CT26 cells and challenge with live tumour cells; format: in vivo, BALB/c mice; conditions: for immunogenic apoptosis / immunogenic cell death (protection against tumour growth): dying CT26 cells injected into one flank, rechallenge with live tumour cells in opposite flank 8 days later
[3] = system: CT26 cells; test: Fluorescence detection of cell surface CRT; format: cell-based, murine
Description: CT26 cells were cultured at 37° C. under 5% CO2 in RPMI 1640 medium supplemented with 10% FCS, penicillin, streptomycin, 1 mM pyruvate and 10 mM HEPES in the presence of doxorubicin (DX; 24 h, 25 μM), mitoxantrone (Mitox; 24 h, 1 μM, Sigma), idarubicin (24 h, 1 μM, Aventis, France), mitomycin C (30 μM, 48 h; Sanofi-Synthelabo, France), and/or zVAD-fmk (50 μM, 24 h; Bachem), tunicamycin (24 h, 65 μM), thapsigargin (24 h, 30 μM), brefeldin A (24 h, 50 μM, Sigma), etoposide (48 h, 25 μM, Tava classics), MG132 (48 h, 10 μM), ALLN (48 h, […]), betulinic acid (24 h, 10 μM), Hoechst 33343 (24 h, 0.2 μM), camptothecine (24 h, 15 μM), lactacystin (48 h, 60 μM), BAY 11-8072 (24 h, 30 μM), staurosporine (24 h, 1.5 μM), bafilomycin A1 (48 h, 300 nM), arsenic trioxide (24 h, 30 μM), C2-ceramide (C2-C; 24 h, 60 μM), calyculin A (48 h, 30 nM), or tautomycin (48 h, […], Sigma) and/or salubrinal (48 h, […], Calbiochem).
CT26 cells (on a glass slide or in 12-well plates) were first washed with FACS buffer (1×PBS, 5% fetus bovine serum, and 0.1% sodium azide) and then incubated with rabbit anti-mouse CRT antibody (1:100, Stressgen) in FACS buffer at 4° C. for 30 min. Cells reacted with anti-rabbit IgG (H+L) Alexa fluor 488-conjugates (1:500) in FACS buffer at 4° C. for 30 min. After washing three times with FACS buffer, surface CRT was detected by cytofluorometric analysis on a FACS Vantage. In some experiments, cells were fixed with 4% paraformaldehyde, counterstained with Hoechst (2 μM; Sigma), followed by fluorescence microscopic assessment with a Leica IRE2 microscope equipped with a DC300F camera.

[4] = system: HeLa cells; test: Surface ERp57 detection (immunofluorescence, flow cytometry); format: cell-based, human; conditions: MTX 1 μM, 2 h
Description: HeLa cells were cultured on cover slips (in RPM1160 medium supplemented with 10% fetal calf serum, L-glutamine and antibiotics), in the absence (control) or in the presence of 1 μM mitoxantrone (MTX, Sigma) for 2 h. For the intracellular stainings, HeLa cells were fixed and permeabilised by means of Cytofix/Cytoperm kit from Becton Dickinson according to the manufacturer's instructions. For the surface stainings, HeLa cells were fixed with paraformadehyde (4% w/v) on ice for 5 min. […] Nuclei were labelled with DAPI mounting medium (Vectashield). Fluorescence microscopy was analyzed with a Leica IRE2 equipped with a DC300F camera. Size bars represent 10 μm.
HeLa cells were treated with or without mitoxantrone (MTX, 1 μM) or tautomycin (Tau, 150 nM, Sigma) for 2 h. Cells were washed twice with PBS and fixed in PFA (4% w/v) for 5 min. HeLa cells were stained with an antibody against Erp57 (pAb from Abcam, ab10827) at 1:200 dilution or isotype control, in staining buffer (PBS, 1% FCS) for 30 min on ice, followed by washing. An anti-rabbit Alexa fluor 488 immunoglobulin conjugate (Molecular Probes-Invitrogen) diluted at 1:500 was added for an additional 30 min on ice before washing and analysed by flow cytometry (FACScan, Becton Dickinson). […] The CellQuest software was used to analyse the mean fluorescence intensity (MFI) and the percentage of ERp57 positive cells.
FIG. 12: ERp57 exposure depends on the activation of a caspase. • (A) HeLa cells were treated with MTX (1 μM) for 2 h in the presence or absence of 50 μM zVAD.fmk. The MFI of surface Erp57 positive cells was analysed as described in FIG. 9. • (B) HCT116 parental cells stably transfected with either a vector encoding p35 (Stennicke et al., 2002; Date et al., 2003) or with a PCMV vector (Sigma) as control, were treated with MTX (1 μM) for 2 h. The MFI of surface Erp57 positive cells was analysed as described in FIG. 9. • (C) HCT116 cells were pre-incubated in the presence of 50 μM biotinylated VAD.fmk (Calbiochem) for 2 h. […]

[5] = system: CT26 cells; test: Biotinylation of cell surface proteins, 2D gel electrophoresis and mass spectrometry
[6] = system: CT26 tumours; test: Single intratumoural injection into established CT26 tumours, immunocompetent mice; format: in vivo, BALB/c mice
[7] = system: CT26 tumours; test: Single intratumoural injection into established CT26 tumours, athymic mice; set-up: species or system nu/nu Balb/c mice; conditions: mouse, in vivo

5′-rCrCrGrCUrGrGrGUrCrGrArAUrCrRrArATT-3′ [specific siRNA]
phagocytosis by DC of anthracyclin/mitoxantrone-treated tumour cells after blockade or knockdown of CRT [1]: suppressed the phagocytosis

CCCCCCCCCCCCC/C=C/[C@@H](O)[C@H](CO)NC(C)=O [C2 ceramide, C2-ceramide]
immunogenic apoptosis / immunogenic cell death (protection against tumour growth) [2]: failed to induce immunogenic apoptosis

CCCCCCCCCCCCC/C=C/[C@@H](O)[C@H](CO)NC(=O)CCCCCCCCCCCCCCC [C16-ceramide]
ecto-CRT after C16-ceramide ([3]; 30 μM, 2 h): rapidly induces ecto-CRT

CCOc1ccc(-c2nc3ccc(-c4nc5ccc(N6CCN(C)CC6)cc5[nH]4)cc3[nH]2)cc1 [Hoechst 33342]
immunogenic apoptosis / immunogenic cell death (protection against tumour growth) [2]: failed to induce immunogenic apoptosis

COC(=O)C[C@H](NC(=O)[C@H](C)NC(=O)[C@@H](NC(=O)OCc1ccccc1)C(C)C)C(=O)CF [Z-VAD-fmk] (Cbz-Val-Ala-Asp(OMe)-CH2F)
effect on immunogenicity of doxorubicin-elicited cell death ([2]; doxorubicin plus Z-VAD-fmk): reduces the immunogenicity
effect on ERp57 exposure induced by MTX [4]: abolished

C[C@H]1CCC/C=C/[C@@H]2C[C@H](O)C[C@H]2[C@H](O)/C=C/C(=O)O1 [brefeldin, brefeldin A]
immunogenic apoptosis / immunogenic cell death (protection against tumour growth) [2]: failed to induce immunogenic apoptosis

COC[C@@H]([C@H](O)[C@H](O)C(=O)NCC[C@H](C)c1nc(/C=C/C[C@@H]2O[C@]3(C[C@@H](O)[C@@H]2C)O[C@H]([C@H](C[C@H](O)[C@H](C)[C@H](O)[C@H](C)/C=C(C)/C(C)=C/C=C/C(C)=C\C#N)OC)[C@H](OP(=O)(O)O)C3(C)C)co1)N(C)C [calyculin A]
immunogenic cell death by PP1/GADD34 inhibition alone ([2]; mouse, in vivo): not sufficient to induce immunogenic cell death
CRT exposure at the cell surface [3]: efficiently induced

CC[C@@]1(O)C(=O)OCc2c1cc1n(c2=O)Cc2cc3ccccc3nc2-1 [camptothecin]
immunogenic apoptosis / immunogenic cell death (protection against tumour growth) [2]: failed to induce immunogenic apoptosis

COc1cccc2c1C(=O)c1c(O)c3c(c(O)c1C2=O)C[C@@](O)(C(=O)CO)C[C@@H]3O[C@H]1C[C@H](N)[C@H](O)[C@H](C)O1 [doxorubicin]
immunogenic apoptosis / immunogenic cell death (protection against tumour growth) [2]: elicited immunogenic cell death
phagocytosis of treated tumour cells by DC ([1]; within a few hours after treatment): acquired the property to be phagocytosed by DC
induction of surface CRT (factor), combined with Z-VAD-fmk ([5]; 4 h, doxorubicin plus Z-VAD-fmk): 1.8
ERP57 surface exposure ([5]; 4 h treatment, 2D electrophoreses): specifically induced
induction of surface CRT (factor) ([5]; short-term (4 h) treatment, biotinylated surface proteins, 2D electrophoreses): 6

COc1cc([C@@H]2c3cc4c(cc3[C@@H](O[C@@H]3O[C@@H]5CO[C@@H](C)O[C@H]5[C@H](O)[C@H]3O)[C@H]3COC(=O)[C@H]23)OCO4)cc(OC)c1O [etoposide]
immunogenic apoptosis / immunogenic cell death (protection against tumour growth) [2]: failed to induce immunogenic apoptosis
immunogenicity of sham-coated cells treated with etoposide ([2]; mouse, in vivo): poorly immunogenic
CRT exposure at the cell surface [3]: fail to induce ecto-CRT
therapeutic effect of intratumoural injection, single agent, immunocompetent mice ([6]; mouse, in vivo): no major therapeutic effect
therapeutic effect of intratumoural injection, single agent, nu/nu mice [7]: no major therapeutic effect

CC(=O)[C@]1(O)Cc2c(O)c3c(c(O)c2[C@@H](O[C@H]2C[C@H](N)[C@H](O)[C@H](C)O2)C1)C(=O)c1ccccc1C3=O [idarubicin]
immunogenic apoptosis / immunogenic cell death (protection against tumour growth) [2]: elicited immunogenic cell death

C/C1=C/C(=O)O[C@@H]2C[C@@H](CC[C@H](C)/C=C\C=C\CC1)O[C@@](O)([C@@H]1CSC(=O)N1)C2 [latrunculin A]
effect on CRT exposure induced by anthracyclins and PP1/GADD34 inhibitors ([3]; pre-incubation for 1 h with the inhibitor): abolished

CO[C@@]12[C@H](COC(N)=O)C3=C(C(=O)C(C)=C(N)C3=O)N1C[C@@H]1N[C@@H]12 [mitomycin C]
CRT exposure at the cell surface [3]: fail to induce ecto-CRT
therapeutic effect of intratumoural injection, single agent, immunocompetent mice ([6]; mouse, in vivo): no major therapeutic effect
therapeutic effect of intratumoural injection, single agent, nu/nu mice [7]: no major therapeutic effect

CO[C@H]([C@H](O)CC(=O)[C@@H](C)[C@@H](O)CC[C@@H](C)[C@@H]1O[C@]2(CC[C@@H](C)[C@H](CC[C@H](C)C(C)=O)O2)CC[C@@H]1C)[C@H](OC(=O)C[C@@H](O)C1=C(C)C(=O)OC1=O)C(C)C [tautomycin]
immunogenic cell death by PP1/GADD34 inhibition alone ([2]; mouse, in vivo): not sufficient to induce immunogenic cell death
CRT exposure at the cell surface [3]: efficiently induced
therapeutic effect of intratumoural injection, single agent, immunocompetent mice ([6]; established 14-day-old CT26 tumours): no major therapeutic effect
therapeutic effect combined with a cell death inducer (etoposide or mitomycin C), immunocompetent mice ([6]; intratumoural): stable disease or complete tumour regression
therapeutic effect of intratumoural injection, single agent, nu/nu mice [7]: no major therapeutic effect
surface exposure of ERp57 ([4]; Tau 150 nM): stimulates the surface exposure

C/C=C(/C)C(=O)O[C@H]1C(C)=C2[C@H]([C@@H]1OC(=O)CCCCCCC)[C@@](C)(OC(C)=O)C[C@H](OC(=O)CCC)[C@@]1(O)[C@H]2OC(=O)[C@@]1(C)O [thapsigargin]
immunogenic apoptosis / immunogenic cell death (protection against tumour growth) [2]: failed to induce immunogenic apoptosis

tunicamycin
immunogenic apoptosis / immunogenic cell death (protection against tumour growth) [2]: failed to induce immunogenic apoptosis
